Data from PubChem BioAssay (NCI).
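Cells were grown in 96-well plates and exposed to each compound for 48 hours at five concentrations; endpoints were interpolated linearly between bracketing concentrations, or set to the highest concentration if not reached. TGI is the concentration that stops growth completely.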

Tests used:
Assay in all cases: growth of human tumour cells (NCI), 48 h
[1] = tested on: 786-0 renal
[2] = tested on: A549 NSCLC
[3] = tested on: ACHN renal
[4] = tested on: BT-549 breast
[5] = tested on: CAKI-1 renal
[6] = tested on: CCRF-CEM leukemia
[7] = tested on: COLO 205 colon
[8] = tested on: DU-145 prostate
[9] = tested on: EKVX NSCLC
[10] = tested on: HCC-2998 colon
[11] = tested on: HCT-116 colon
[12] = tested on: HCT-15 colon
[13] = tested on: HL-60(TB) leukemia
[14] = tested on: HOP-92 NSCLC
[15] = tested on: HS 578T breast
[16] = tested on: IGROV1 ovarian
[17] = tested on: K-562 leukemia
[18] = tested on: KM12 colon
[19] = tested on: LOX IMVI melanoma
[20] = tested on: M14 melanoma
[21] = tested on: MALME-3M melanoma
[22] = tested on: MCF7 breast
[23] = tested on: MDA-MB-231 breast
[24] = tested on: MDA-MB-435
[25] = tested on: MDA-N
[26] = tested on: MOLT-4 leukemia
[27] = tested on: NCI-H226 lung
[28] = tested on: NCI-H460 lung
[29] = tested on: NCI-H522 lung
[30] = tested on: NCI/ADR-RES ovarian
[31] = tested on: OVCAR-3 ovarian
[32] = tested on: OVCAR-4 ovarian
[33] = tested on: OVCAR-5 ovarian
[34] = tested on: OVCAR-8 ovarian
[35] = tested on: PC-3 prostate
[36] = tested on: RPMI-8226 leukemia
[37] = tested on: RXF 393 renal
[38] = tested on: SF-268 CNS
[39] = tested on: SF-295 CNS
[40] = tested on: SF-539 CNS
[41] = tested on: SK-MEL-2 melanoma
[42] = tested on: SK-MEL-28 melanoma
[43] = tested on: SK-MEL-5 melanoma
[44] = tested on: SN12C renal
[45] = tested on: SNB-19 CNS
[46] = tested on: SNB-75 CNS
[47] = tested on: SR leukemia
[48] = tested on: SW-620 colon
[49] = tested on: T-47D breast
[50] = tested on: TK-10 renal
[51] = tested on: U251 CNS
[52] = tested on: UACC-257 melanoma
[53] = tested on: UACC-62 melanoma
[54] = tested on: UO-31 renal
[55] = tested on: HOP-62 NSCLC
[56] = tested on: HT29 colon
[57] = tested on: NCI-H23 lung
[58] = tested on: SK-OV-3 ovarian

Measured: TGI

CCOC(=O)c1nc2cc(C(F)(F)F)ccc2nc1Oc1ccc(OC)cc1
> 100 µM: [1] | [2] | [3] | [4] | [5] | [6] | [7] | [8] | [9] | [10] | [11] | [12] | [13] | [14] | [15] | [16] | [17] | [18] | [19] | [20] | [21] | [22] | [23] | [24] | [25] | [26] | [27] | [28] | [29] | [30] | [31] | [32] | [33] | [34] | [35] | [36] | [37] | [38] | [39] | [40] | [41] | [42] | [43] | [44] | [45] | [46] | [47] | [48] | [49] | [50] | [51] | [52] | [53] | [54]

O=C(CN=C(CN(c1ccccc1)c1ccccc1)Oc1c(Cl)cc(Cl)cc1Cl)N1c2ccccc2Sc2ccccc21
57.2 µM: [14]
> 100 µM: [1] | [2] | [3] | [4] | [6] | [7] | [8] | [9] | [10] | [11] | [12] | [13] | [55] | [15] | [56] | [16] | [18] | [20] | [21] | [22] | [23] | [24] | [25] | [26] | [27] | [57] | [28] | [29] | [30] | [31] | [32] | [33] | [34] | [35] | [36] | [38] | [39] | [40] | [42] | [43] | [58] | [44] | [45] | [46] | [47] | [48] | [49] | [50] | [51] | [52] | [53]
27.4 µM: [37]
